Consider 3 compounds from ChEMBL document CHEMBL4622963, “Optimization of Nicotinamides as Potent and Selective IRAK4 Inhibitors with Efficacy in a Murine Model of Psoriasis” (ACS Med Chem Lett, 2020).

Series [1] has as its target T1, Interleukin-1 receptor-associated kinase 4 (Homo sapiens, UniProt Q9NWZ3).
T1 sequence (Q9NWZ3 whole entry): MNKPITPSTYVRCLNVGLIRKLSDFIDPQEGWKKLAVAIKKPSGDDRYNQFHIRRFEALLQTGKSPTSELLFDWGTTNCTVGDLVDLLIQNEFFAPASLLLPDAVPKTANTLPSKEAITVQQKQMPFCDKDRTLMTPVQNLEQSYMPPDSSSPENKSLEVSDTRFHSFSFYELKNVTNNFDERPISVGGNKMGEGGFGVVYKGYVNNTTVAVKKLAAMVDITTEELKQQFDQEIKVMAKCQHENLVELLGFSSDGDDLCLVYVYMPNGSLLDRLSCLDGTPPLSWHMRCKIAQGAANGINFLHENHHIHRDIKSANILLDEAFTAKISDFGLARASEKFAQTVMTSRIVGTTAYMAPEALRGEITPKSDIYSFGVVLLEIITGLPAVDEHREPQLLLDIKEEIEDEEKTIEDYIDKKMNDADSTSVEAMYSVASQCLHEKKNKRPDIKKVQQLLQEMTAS
Put plainly: Inhibition of IRAK4 (unknown origin) using FL-IPTSPITTTYFFFKKK peptide and ATP as substrate incubated for 60 mins by fluorescence based caliper assay.

Series [2] addresses T1, Interleukin-1 receptor-associated kinase 4. Put plainly: Inhibition of IRAK4 in human PBMC assessed as inhibition of LTA-induced IL-6 production preincubated for 30 mins followed by LTA-stimulation and measured after 5 hrs by ELISA. It is filed as cell-based. In general terms: ELISA stands for enzyme-linked immunosorbent assay.
Series [3] shares this target. Kind of series: Inhibition of IRAK4 in human whole blood assessed as inhibition of LTA-induced IL-6 production preincubated for 30 mins followed by LTA-stimulation and measured after 5 hrs by ELISA. It is filed as tissue-based.
Series [4] in a line: Stability in human liver microsomes assessed as parent compound remaining. Type of series: ADME, Microsome. Background: Microsomes from liver hold many membrane-bound enzymes, among them those of drug oxidation.
Series [5] is described as follows: Stability in mouse liver microsomes assessed as parent compound remaining measured after 10 mins. It is filed as ADME, Microsome. To be noted: read-out: Stability.
Series [6] is filed under the species Homo sapiens. Put plainly: Selectivity index, ratio of IC50 for N-terminal His6-tagged human full length recombinant LCK expressed in baculovirus infected Sf21 cells to IC50 for IRAK4 (unknown origin).
The species named for series [7] is Homo sapiens. Kind of series: Selectivity index, ratio of IC50 for recombinant N-terminal GST-tagged human cKit (544 to end residues) expressed in baculovirus infected Sf21 cells to IC50 for IRAK4 (unknown origin).
Series [8] can be described thus: Permeability across apical to basolateral side in human Caco2 cells. To be noted: Caco-2. (In general: Caco-2 monolayers are a common model of the intestinal barrier.)
A short description of series [9]: Clearance in mouse at 2 mg/kg, iv administered as infusion or 3 mg/kg, po via gavage measured up to 24 hrs by LC-MS analysis. Type of series: ADME, organism-based. Conditions: in vivo.
Series [10] in a line: Volume of distribution at steady state in mouse at 2 mg/kg, iv administered as infusion or 3 mg/kg, po via gavage measured up to 24 hrs by LC-MS analysis. To be noted: in vivo, read-out: Vdss. Type of series: ADME, organism-based.
Series [11] in a line: Half life in mouse at 2 mg/kg, iv administered as infusion or 3 mg/kg, po via gavage measured up to 24 hrs by LC-MS analysis. Type of series: ADME, organism-based. To be noted: in vivo.
Series [12] in a line: AUC in mouse at 2 mg/kg, iv administered as infusion measured up to 24 hrs by LC-MS analysis. To be noted: in vivo. Also noted: time < 24 hr, dose 2 mg/kg, route intravenous. Type of series: ADME, organism-based.
Series [13] in a line: AUC in mouse at 3 mg/kg, po via gavage measured up to 24 hrs by LC-MS analysis. Type of series: ADME, organism-based. Also noted: dose 3 mg/kg, time < 24 hr, route oral. To be noted: in vivo.
Series [14] is described as follows: Oral bioavailability in mouse at 3 mg/kg administered via gavage measured up to 24 hrs by LC-MS analysis. It is filed as ADME, organism-based. To be noted: in vivo.
A further series deals with Cytochrome P450 3A4 (Homo sapiens, UniProt P08684). Put plainly: Inhibition of CYP3A4 (unknown origin). It is filed as ADME.
The target in series [15] is TRAF2 and NCK-interacting protein kinase (Homo sapiens, UniProt Q9UKE5). Kind of series: Inhibition of human wild type partial length TNIK (D4-K311 residues) expressed in bacterial expression system.
In series [16] the target is T2, Mast/stem cell growth factor receptor Kit (Homo sapiens, UniProt P10721). Put plainly: Inhibition of recombinant N-terminal GST-tagged human cKit (544 to end residues) expressed in baculovirus infected Sf21 cells.
The target in series [17] is T3, Mitogen-activated protein kinase kinase kinase 7 (Homo sapiens, UniProt O43318).
T3 sequence (O43318 whole entry): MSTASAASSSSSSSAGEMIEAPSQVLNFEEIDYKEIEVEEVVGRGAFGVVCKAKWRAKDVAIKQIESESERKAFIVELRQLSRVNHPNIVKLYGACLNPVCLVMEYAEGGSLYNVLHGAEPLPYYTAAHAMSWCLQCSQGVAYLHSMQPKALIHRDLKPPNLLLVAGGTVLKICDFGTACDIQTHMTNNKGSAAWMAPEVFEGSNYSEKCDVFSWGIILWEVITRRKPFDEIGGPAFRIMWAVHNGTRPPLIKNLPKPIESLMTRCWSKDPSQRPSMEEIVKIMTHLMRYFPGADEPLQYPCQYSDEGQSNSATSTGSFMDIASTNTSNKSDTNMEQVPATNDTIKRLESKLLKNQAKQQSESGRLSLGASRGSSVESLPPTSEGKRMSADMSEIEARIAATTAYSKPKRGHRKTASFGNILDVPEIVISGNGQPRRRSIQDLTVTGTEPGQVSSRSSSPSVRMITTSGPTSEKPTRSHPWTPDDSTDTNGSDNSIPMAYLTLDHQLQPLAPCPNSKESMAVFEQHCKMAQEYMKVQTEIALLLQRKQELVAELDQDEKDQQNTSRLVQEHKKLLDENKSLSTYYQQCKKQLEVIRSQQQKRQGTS
Kind of series: Inhibition of human wild type partial length TAK1 (1 to 303 residues) expressed in mammalian expression system.

Series [18] can be described thus: Clearance in mouse at 2 mg/kg, iv administered as infusion or 2 mg/kg, po via gavage measured up to 24 hrs by LC-MS analysis. Type of series: ADME, organism-based. To be noted: in vivo.
Series [19] is described as follows: Volume of distribution at steady state in mouse at 2 mg/kg, iv administered as infusion or 2 mg/kg, po via gavage measured up to 24 hrs by LC-MS analysis. Type of series: ADME, organism-based. To be noted: in vivo, read-out: Vdss.
A short description of series [20]: Half life in mouse at 2 mg/kg, iv administered as infusion or 2 mg/kg, po via gavage measured up to 24 hrs by LC-MS analysis. It is filed as ADME, organism-based. To be noted: in vivo.
Series [21] in a line: AUC in mouse at 2 mg/kg, po via gavage measured up to 24 hrs by LC-MS analysis. It is filed as ADME, organism-based. Also noted: time < 24 hr, dose 2 mg/kg, route oral. Conditions: in vivo.
Series [22] can be described thus: Oral bioavailability in mouse at 2 mg/kg administered via gavage measured up to 24 hrs by LC-MS analysis. It is filed as ADME, organism-based. Conditions: in vivo.
The target in series [23] is Mast/stem cell growth factor receptor Kit (Homo sapiens, UniProt P10721, V559D). Put plainly: Inhibition of recombinant human partial length cKit Val559Asp mutant expressed in bacterial expression system.
Series [24] addresses Mast/stem cell growth factor receptor Kit (Homo sapiens, UniProt P10721, V559D/T670I). Kind of series: Inhibition of recombinant human partial length cKit Val559Asp/Thr670Ile double mutant expressed in bacterial expression system.
Series [25] has as its target T2, Mast/stem cell growth factor receptor Kit. Put plainly: Inhibition of cKit (unknown origin) by functional based assay.

T2 sequence (P10721 whole entry): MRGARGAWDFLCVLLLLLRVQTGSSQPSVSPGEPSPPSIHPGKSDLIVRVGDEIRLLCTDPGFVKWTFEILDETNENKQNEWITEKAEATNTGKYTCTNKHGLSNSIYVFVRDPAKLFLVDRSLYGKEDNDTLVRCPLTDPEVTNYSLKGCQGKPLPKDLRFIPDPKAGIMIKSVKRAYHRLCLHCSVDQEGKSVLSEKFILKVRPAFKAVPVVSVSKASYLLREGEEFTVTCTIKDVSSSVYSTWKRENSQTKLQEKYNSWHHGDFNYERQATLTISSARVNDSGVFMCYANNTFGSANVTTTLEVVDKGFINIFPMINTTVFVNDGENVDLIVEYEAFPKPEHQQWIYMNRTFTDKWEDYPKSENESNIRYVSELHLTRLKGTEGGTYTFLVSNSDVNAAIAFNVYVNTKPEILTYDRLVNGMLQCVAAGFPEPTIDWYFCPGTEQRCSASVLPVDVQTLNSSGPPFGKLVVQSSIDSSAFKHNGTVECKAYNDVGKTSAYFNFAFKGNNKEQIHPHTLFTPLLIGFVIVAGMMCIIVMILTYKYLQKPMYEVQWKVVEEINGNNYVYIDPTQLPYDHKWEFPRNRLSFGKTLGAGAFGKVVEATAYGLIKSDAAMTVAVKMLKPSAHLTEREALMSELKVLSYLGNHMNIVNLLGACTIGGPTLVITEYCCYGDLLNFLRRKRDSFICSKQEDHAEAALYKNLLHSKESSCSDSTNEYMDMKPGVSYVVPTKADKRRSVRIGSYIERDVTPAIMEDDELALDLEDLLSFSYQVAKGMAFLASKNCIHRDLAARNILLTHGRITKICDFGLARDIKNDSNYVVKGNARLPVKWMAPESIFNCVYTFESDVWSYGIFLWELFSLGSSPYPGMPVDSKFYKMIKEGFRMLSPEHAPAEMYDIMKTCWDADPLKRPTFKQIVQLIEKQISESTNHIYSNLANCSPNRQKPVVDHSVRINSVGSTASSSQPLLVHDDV
Sequence of Mast/stem cell growth factor receptor Kit (Homo sapiens, UniProt P10721, V559D) (P10721 26-976 V559D limits assumed): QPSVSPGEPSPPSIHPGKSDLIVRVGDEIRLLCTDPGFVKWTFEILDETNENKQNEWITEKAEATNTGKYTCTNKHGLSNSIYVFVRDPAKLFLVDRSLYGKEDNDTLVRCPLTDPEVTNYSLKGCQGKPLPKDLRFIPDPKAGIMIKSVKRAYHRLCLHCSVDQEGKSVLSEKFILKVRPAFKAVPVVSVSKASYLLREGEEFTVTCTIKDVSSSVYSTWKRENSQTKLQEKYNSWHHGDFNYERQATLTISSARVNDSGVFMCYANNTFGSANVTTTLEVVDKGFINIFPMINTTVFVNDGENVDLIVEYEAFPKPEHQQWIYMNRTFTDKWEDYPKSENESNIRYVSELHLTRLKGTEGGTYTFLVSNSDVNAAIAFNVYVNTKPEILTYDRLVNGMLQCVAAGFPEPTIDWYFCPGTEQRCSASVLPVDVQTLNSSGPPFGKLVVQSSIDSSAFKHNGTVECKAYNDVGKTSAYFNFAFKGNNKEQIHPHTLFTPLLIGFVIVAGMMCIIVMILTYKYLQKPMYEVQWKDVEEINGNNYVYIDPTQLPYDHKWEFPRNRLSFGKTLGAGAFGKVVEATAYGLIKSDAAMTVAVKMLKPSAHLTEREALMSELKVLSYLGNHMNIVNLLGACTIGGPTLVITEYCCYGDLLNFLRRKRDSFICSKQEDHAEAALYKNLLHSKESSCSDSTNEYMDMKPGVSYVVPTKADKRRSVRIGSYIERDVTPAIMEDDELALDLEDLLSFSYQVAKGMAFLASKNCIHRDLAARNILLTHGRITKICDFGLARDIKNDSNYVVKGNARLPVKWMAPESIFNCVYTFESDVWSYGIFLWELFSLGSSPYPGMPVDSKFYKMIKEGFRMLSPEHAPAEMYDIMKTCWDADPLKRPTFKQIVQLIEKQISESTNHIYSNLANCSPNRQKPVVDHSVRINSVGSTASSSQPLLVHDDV
Sequence of Cytochrome P450 3A4 (P08684 whole entry, the tested form may be a part): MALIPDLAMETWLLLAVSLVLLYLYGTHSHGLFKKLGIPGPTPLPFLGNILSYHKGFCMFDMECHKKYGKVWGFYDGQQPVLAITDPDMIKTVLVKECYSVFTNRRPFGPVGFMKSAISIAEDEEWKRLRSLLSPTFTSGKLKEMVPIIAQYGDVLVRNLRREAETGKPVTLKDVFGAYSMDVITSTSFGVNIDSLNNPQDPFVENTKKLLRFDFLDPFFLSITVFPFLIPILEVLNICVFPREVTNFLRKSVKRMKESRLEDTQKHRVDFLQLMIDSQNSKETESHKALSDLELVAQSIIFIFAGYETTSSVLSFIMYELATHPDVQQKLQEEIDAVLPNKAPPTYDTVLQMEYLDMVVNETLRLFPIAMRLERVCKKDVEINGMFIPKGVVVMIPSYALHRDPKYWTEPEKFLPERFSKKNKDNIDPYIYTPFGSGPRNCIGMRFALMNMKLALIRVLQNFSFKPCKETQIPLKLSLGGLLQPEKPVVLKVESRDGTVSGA
Sequence of TRAF2 and NCK-interacting protein kinase (Q9UKE5 whole entry, the tested form may be a part): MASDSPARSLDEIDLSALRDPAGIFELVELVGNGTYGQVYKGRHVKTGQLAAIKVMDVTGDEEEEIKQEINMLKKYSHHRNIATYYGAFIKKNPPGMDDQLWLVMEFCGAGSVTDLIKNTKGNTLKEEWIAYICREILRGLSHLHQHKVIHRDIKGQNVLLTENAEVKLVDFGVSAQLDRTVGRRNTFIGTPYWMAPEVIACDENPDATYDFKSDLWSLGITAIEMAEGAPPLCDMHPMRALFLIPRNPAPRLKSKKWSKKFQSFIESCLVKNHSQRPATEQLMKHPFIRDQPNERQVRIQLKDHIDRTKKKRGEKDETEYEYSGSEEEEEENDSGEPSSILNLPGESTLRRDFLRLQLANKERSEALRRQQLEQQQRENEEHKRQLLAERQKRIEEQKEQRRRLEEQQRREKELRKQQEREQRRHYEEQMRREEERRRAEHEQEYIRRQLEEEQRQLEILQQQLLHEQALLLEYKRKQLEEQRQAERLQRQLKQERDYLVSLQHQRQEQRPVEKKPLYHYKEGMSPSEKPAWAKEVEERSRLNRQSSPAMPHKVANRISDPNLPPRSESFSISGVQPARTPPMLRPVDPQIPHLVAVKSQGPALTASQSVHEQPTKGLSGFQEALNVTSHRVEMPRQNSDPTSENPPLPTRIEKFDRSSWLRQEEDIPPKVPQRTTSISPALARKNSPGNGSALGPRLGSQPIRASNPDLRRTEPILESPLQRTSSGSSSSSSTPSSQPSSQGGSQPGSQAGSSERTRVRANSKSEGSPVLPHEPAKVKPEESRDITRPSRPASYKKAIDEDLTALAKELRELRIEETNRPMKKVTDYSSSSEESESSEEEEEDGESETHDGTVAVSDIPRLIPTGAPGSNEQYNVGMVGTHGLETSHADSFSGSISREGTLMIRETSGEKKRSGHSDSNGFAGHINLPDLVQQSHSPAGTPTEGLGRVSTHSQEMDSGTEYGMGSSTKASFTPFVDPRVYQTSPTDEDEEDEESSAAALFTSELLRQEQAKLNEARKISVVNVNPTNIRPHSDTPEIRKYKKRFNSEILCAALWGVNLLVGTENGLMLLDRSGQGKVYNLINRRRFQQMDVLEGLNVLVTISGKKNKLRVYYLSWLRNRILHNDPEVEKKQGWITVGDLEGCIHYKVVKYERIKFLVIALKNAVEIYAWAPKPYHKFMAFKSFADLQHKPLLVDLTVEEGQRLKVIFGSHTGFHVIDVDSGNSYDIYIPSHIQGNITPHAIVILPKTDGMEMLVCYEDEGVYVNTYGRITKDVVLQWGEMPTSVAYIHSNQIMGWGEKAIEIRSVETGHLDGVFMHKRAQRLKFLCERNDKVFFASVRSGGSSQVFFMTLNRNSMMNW
Sequence of Mast/stem cell growth factor receptor Kit (Homo sapiens, UniProt P10721, V559D/T670I) (P10721 26-976 V559D/T670I limits assumed): as the sequence (P10721 26-976 V559D limits assumed) above, with T645I counted along it

`CC(C)Nc1cc(Nc2ccc3nonc3c2)ncc1C(=O)NC[C@@H](F)C(C)(C)O`: the half-inhibitory concentration (IC50) in [1] amounted to 8.7 nM; in series [2], 640 nM; in series [3], 210 nM. In addition, the Stability in series [4] is given as 93%. Besides, the remaining at 10 min in series [5] amounted to 89%. Besides, the Ratio IC50 in the series filed under Homo sapiens [6] was found to be 190; in the series filed under Homo sapiens [7], 420. The apical-to-basolateral permeability (Papp A→B) in series [8] turned out to be 3.8 ×10⁻⁶ cm/s. Besides, the clearance in series [9] stood at 14 mL/min/kg. Besides, the Vd in series [10] is 3.2 L/kg. The compound also showed a half-life in [11] of 3.6 h. The exposure (AUC) at 24 h in series [12] is 4.7 µM·h; in series [13], 4.6 µM·h. The compound further returned a bioavailability in series [14] of 65%.

As to `CC(C)Nc1cc(Nc2ccc3ncsc3c2)ncc1C(=O)NCCc1ccc(S(N)(=O)=O)cc1`, the half-maximal inhibitory concentration (IC50) in [1] was 5.7 nM; in [2] it was 1200 nM; at Cytochrome P450 3A4 it was 900 nM. In addition, the Stability in series [4] is listed as 17%. Besides, the remaining at 10 min in series [5] stood at 38%. For the same compound, the Ratio IC50 in the series listed under Homo sapiens [6] was 280. Moreover, the Papp A→B in series [8] was less than 1.5 ×10⁻⁶ cm/s.

As to `CC(C)Nc1cc(Nc2ccn3nccc3n2)ncc1C(=O)NC[C@@H](F)C(C)(C)O`, the IC50 is 3.2 nM in series [1]; 100 nM in [2]; 340 nM in [3]; 8 nM in series [15]; 24 nM in [16]; 190 nM in [17]. In [25], 170 nM corresponded to half-maximal inhibition (IC50). Moreover, in series [4], the Stability is 100%. Moreover, in [5], the remaining at 10 min was found to be 89%. In addition, the Ratio IC50 in the series listed under Homo sapiens [6] stood at 130; in the series listed under Homo sapiens [7], 8. Besides, the Papp A→B in [8] worked out at 6.9 ×10⁻⁶ cm/s. The same compound yielded a clearance in series [18] of 33 mL/min/kg. For the same compound, the Vd in [19] is 3 L/kg. In addition, the half-life in series [20] was 2 h. Further, the values for the AUC at 24 h in [12] and in series [21] were 2.4 µM·h and 0.9 µM·h, respectively. This compound displayed a bioavailability in series [22] of 36%. Also, the results for the “inhibition (INH)” value in series [23] and in series [24] were “Active” and “Not Active”, respectively.

The IC50 is the concentration at which inhibition is half-maximal. As usually defined, the Papp A→B is how fast a substance crosses the layer from the apical side. The low end stands for slow passage, the high end for fast passage. As usually defined, the half-life is the time needed for the level to fall by half in the phase considered. Low readings indicate fast loss, high ones slow loss. For orientation: AUC means the area under the concentration-time curve, a measure of exposure. Lower therefore signals less exposure. A word on the bioavailability: it is dose-corrected exposure relative to a reference, in per cent.
